# Molecular target: T1, CDK12/CCNK with DDB1-CUL4-RBX1 (Homo sapiens, UniProt Q9NYV4)
# T1 construct: made in house; host or cells: 293F cells (CDK12/CCNK, UBA1, UBE2G1, UBE2D3, CUL4A/RBX1); Sf9 (His-DDB1); E. coli BL21(DE3) (His-ubiquitin)
# Assay: In vitro ubiquitination of CCNK
# Type: biochemical
# Settings: E1, E2, E3 and HQ461 present
# Description: Human Ubiquitin ORF was cloned into pET28a vector with an N-terminal 6xHis tag. The resulting pET28a-6xHis-Ub plasmid was transformed into the E. coli strain BL21 (DE3) and grown at 37°C until OD600 reached ~0.8. His-Ub expression was induced overnight by 0.5 mM IPTG at 18°C. Cells were collected by centrifugation at 4000 g and resuspended with lysis buffer containing 50 mM Tris-HCl, pH 7.5, 500 mM NaCl, 20 mM imidazole, 5% glycerol. Cell lysis was performed by French Press. After 20,000 g centrifugation for 1 hr at 4°C, the supernatant was incubated with Ni-NTA resin. After extensive wash with lysis buffer, His-Ub was eluted from Ni-NTA resin with 50 mM Tris-HCl, pH 7.5, 500 mM NaCl, 300 mM imidazole, 5% glycerol. Fractions containing His-Ub were pooled and concentrated, followed by gel filtration on a Superdex 200 10/300 GL column (GE Healthcare, Chicago, USA) in gel filtration buffer (50 mM Tris-HCl, pH7.5, 10 mM NaCl, 1 mM DTT). Fractions containing His-Ub were pooled and concentrated by a 3 KDa MWCO Ultra centrifugal filter (Amicon), flash frozen with liquid nitrogen, and stored at −80°C before use.
# Human ORFs encoding UBA1 (residues 49–1058, NP_003325.2), UBE2G1 (NP_003333.1), UBE2D3 (NP_003331.1), CUL4A (NP_001008895.1) were cloned into pPB-CAG-1xFLAG vector. ORF encoding human RBX1 (NP_055063.1) was cloned into pPB-CAG vector without a tag. […]
# T1 sequence (Q9NYV4 1-1481 isoform Q9NYV4-2): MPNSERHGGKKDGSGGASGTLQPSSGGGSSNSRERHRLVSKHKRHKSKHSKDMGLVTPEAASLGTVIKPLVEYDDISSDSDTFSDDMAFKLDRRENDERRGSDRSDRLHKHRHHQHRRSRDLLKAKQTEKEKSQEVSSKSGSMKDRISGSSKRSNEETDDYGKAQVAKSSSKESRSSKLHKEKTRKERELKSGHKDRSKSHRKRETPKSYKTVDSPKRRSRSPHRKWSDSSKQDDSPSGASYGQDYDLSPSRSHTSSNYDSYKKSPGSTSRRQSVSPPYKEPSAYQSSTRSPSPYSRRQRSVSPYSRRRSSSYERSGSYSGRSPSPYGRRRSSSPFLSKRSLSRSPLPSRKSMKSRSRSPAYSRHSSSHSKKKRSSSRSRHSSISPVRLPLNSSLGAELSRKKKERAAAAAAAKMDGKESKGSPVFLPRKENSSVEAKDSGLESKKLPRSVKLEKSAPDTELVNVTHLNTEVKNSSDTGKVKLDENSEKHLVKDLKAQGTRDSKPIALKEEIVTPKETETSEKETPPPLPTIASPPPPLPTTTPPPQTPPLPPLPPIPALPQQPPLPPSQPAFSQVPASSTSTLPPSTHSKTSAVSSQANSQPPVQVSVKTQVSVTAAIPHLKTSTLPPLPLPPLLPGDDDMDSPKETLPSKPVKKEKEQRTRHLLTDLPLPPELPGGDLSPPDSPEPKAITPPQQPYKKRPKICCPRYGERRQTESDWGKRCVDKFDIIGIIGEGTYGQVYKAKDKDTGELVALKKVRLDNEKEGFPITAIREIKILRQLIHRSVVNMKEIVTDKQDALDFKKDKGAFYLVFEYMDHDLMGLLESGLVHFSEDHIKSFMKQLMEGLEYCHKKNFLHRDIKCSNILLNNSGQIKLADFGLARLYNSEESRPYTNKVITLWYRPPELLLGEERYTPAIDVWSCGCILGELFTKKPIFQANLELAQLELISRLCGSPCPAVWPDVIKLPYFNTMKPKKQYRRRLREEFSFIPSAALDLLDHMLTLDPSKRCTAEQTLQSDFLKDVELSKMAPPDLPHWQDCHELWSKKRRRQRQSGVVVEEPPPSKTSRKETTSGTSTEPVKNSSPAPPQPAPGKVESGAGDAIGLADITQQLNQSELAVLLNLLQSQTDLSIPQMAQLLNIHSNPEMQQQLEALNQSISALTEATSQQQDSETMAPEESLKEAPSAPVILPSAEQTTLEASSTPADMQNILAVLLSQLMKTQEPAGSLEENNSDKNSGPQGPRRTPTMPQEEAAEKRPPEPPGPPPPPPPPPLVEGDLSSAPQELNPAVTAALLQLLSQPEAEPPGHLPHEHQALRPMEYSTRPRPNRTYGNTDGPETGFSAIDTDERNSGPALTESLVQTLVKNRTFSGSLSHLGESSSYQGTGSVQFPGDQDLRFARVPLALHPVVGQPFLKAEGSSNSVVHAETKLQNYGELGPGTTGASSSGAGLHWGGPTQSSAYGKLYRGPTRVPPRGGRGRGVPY
# T1 sequence (O75909 whole entry partner): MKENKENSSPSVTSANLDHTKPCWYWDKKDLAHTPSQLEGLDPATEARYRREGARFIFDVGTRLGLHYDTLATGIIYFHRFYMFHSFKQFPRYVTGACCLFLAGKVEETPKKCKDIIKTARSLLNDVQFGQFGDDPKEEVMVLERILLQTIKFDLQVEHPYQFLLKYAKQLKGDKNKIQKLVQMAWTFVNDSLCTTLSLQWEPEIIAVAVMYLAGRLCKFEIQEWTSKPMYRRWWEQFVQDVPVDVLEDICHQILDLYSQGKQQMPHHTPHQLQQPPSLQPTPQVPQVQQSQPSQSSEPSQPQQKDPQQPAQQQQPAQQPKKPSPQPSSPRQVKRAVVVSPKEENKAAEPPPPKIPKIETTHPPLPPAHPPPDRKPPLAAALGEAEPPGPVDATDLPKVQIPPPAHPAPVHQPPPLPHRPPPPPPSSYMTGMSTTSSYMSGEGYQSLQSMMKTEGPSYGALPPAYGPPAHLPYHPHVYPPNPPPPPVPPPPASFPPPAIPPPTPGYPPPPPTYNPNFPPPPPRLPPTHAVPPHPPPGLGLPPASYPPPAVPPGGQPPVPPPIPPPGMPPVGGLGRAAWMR
# T1 sequence (Q16531 whole entry partner): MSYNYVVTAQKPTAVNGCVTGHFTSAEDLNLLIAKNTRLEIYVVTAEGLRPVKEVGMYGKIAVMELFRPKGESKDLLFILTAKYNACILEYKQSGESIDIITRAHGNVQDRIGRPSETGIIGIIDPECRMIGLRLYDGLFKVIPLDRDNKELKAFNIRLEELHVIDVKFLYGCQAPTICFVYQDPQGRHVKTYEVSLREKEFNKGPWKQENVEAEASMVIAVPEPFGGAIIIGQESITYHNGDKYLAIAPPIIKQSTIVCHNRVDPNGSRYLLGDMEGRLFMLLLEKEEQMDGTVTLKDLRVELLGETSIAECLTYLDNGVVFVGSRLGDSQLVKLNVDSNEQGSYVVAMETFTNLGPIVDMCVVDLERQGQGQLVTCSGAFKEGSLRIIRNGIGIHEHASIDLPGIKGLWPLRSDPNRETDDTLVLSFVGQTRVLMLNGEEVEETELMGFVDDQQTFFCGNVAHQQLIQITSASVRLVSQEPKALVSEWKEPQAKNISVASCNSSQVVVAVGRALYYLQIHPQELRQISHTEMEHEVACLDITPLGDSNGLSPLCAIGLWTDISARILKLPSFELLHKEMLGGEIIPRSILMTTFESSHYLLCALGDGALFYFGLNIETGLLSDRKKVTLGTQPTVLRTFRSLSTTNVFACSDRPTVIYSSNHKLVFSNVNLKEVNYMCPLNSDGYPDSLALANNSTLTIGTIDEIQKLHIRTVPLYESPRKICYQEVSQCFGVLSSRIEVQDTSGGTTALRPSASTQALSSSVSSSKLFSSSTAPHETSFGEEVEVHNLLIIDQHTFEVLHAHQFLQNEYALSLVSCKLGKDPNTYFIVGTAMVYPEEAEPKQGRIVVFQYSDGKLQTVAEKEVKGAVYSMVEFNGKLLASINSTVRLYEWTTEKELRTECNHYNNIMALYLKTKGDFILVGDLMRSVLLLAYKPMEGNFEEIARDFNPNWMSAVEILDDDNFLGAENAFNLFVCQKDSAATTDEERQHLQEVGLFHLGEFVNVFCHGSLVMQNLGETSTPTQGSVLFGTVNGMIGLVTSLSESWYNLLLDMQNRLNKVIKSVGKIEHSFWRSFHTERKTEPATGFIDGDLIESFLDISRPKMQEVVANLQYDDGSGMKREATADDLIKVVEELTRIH
# T1 sequence (Q13619 whole entry partner): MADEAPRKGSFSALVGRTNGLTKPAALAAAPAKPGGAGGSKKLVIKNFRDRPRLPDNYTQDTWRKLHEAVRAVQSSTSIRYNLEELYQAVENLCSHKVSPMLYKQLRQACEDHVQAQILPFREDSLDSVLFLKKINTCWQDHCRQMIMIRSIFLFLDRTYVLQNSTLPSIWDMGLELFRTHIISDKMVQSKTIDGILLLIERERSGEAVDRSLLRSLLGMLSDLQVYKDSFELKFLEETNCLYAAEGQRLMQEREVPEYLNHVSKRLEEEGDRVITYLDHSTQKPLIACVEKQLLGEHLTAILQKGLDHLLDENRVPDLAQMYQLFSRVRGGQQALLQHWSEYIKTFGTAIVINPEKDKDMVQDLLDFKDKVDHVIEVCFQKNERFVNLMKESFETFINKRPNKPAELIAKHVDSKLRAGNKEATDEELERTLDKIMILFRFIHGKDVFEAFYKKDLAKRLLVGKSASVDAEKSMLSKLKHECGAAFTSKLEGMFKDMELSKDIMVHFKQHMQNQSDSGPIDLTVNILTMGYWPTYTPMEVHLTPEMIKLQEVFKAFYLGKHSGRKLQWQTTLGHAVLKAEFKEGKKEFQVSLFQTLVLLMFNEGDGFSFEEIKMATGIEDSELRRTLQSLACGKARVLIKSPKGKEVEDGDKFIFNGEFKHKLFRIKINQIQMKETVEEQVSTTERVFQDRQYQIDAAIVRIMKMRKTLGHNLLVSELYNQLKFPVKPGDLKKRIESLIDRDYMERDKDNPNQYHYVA
# T1 sequence (P62877 whole entry partner): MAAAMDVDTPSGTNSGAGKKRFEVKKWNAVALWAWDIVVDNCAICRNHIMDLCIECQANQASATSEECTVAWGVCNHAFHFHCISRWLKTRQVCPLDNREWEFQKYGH
structure (smiles),measurement,value
"Cc1cccc(Nc2nc(CC(=O)Nc3ncc(C)s3)cs2)n1 [HQ461, 2-(2-((6-methylpyridin-2-yl)amino)thiazol-4-yl)-N-(5-methylthiazol-2-yl)acetamide]",in vitro polyubiquitination,polyubiquitination of CCNK but not CDK12
